Experiments:
[1] = system: mice antibody formation; test: Mice antibody formation in vivo (SRBC immunisation, serum haemolysis HC50); parameters: species or system BALB/c mice
Method: The mice were randomized into three groups: peptide (200 μg/kg/day), Cyclosporine A (10 mg/kg/day), and saline (0.5 ml). Each group contained 12 mice, 6 female and 6 male. The test substances were dissolved in 0.5 ml saline and applied intraperitoneally once per day for 20 consecutive days.
Sheep red blood cells (SRBC) were resuspended with saline to 2% (v/v) and 0.2 ml of the resuspended cell solution was applied intraperitoneally to each mouse on day 16th of the test substance administration. On the day after the last test substance administration, blood was collected from the inner canthus and left at room temperature for one hour for serum exudation. After centrifugation at 200 g for 10 minutes, the serum was diluted by 200 times with normal saline.
For the preparation of the complement working solution, 10 volumes of fresh Cavy serum was added into one volume of centrifuge-packed SRBC. […]
For assay of the mice antibody titer, 0.2 ml of 1% SRBC suspension was added to 1 ml diluted ice-cold mouse serum from each mouse. […] To 1 ml of this supernatant, 3 ml Drabkin solution was added and left at room temperature for 10 minutes, and then the OD540nm was measured. The reference lysis-50 reading at OD540nm was determined by following the exact procedure as the sample, except replacing half of the SRBC with saline and without the centrifugation removal of the unlysed SRBC. […]

[2] = system: mice T-lymphocyte; test: Mice T-lymphocyte transformation in vivo (i.p. dosing 20 days, spleen cells + ConA, MTT, stimulation index); parameters: species or system BALB/c mice
Method: Animals were randomized into two peptide groups (200 μg/kg/day and 50 μg/kg/day), Cyclosporine A group (10 mg/kg/day), and saline group (0.5 ml/day). Each group contained 10 mice, in which half were female and half were male. All test substances were dissolved in 0.5 ml saline and administered intraperitoneally once per day for 20 days. T-lymphocyte transformation and NK cell activity were examined on the day immediately following the last injection. The day after the last test substance administration, the mice were sacrificed by cervical dislocation. The spleens were isolated aseptically and manually dispersed in 10% FBS RPMI-1640 solution using an injection needle. The dispersed cell suspension was further sieved through a 100 gauge 150 μm diameter stainless steel sieve and adjusted to 4×10^6/ml. The cell suspensions were inoculated onto a 96 wells cell culture plate, 100 μl/well with the following design. Assay wells: 100 μl cell suspension+100 μl ConA Control wells: 100 μl cell suspension+100 μl RPMI-1640 Four assay and four control wells were set up for each animal. The plates were incubated at 37° C., 5% CO2 for 68 hours. MTT was then added and the plates read at OD 570 nm referenced at 630 nm with ELISA reader. Stimulation Index SI (%)=(assay well OD/control well OD)×100%.

PLNPK [CMS-010.26]
HC50 ([1]; 200 μg/kg/day i.p. 20 days, SRBC day 16, saline 167.6 ± 21.5): 141.3 ± 29.3
Effect on mice antibody formation in vivo ([1]; at suitable dosage, vs saline control P<0.05): suppress
SI ([2]; Table 4, 200 μg/kg/day i.p. 20 days, saline 3.63 ± 0.69): 2.19 ± 0.59
Effect on mice T-lymphocyte transformation in vivo ([2]; at suitable dosages, vs saline control P<0.05): suppress
